The target of one assay is T1, human TLR8 (Homo sapiens, UniProt Q9NR97).
T1 construct: host or cells: HEK293 NF-kB reporter cells
T1 sequence (Q9NR97 27-1041): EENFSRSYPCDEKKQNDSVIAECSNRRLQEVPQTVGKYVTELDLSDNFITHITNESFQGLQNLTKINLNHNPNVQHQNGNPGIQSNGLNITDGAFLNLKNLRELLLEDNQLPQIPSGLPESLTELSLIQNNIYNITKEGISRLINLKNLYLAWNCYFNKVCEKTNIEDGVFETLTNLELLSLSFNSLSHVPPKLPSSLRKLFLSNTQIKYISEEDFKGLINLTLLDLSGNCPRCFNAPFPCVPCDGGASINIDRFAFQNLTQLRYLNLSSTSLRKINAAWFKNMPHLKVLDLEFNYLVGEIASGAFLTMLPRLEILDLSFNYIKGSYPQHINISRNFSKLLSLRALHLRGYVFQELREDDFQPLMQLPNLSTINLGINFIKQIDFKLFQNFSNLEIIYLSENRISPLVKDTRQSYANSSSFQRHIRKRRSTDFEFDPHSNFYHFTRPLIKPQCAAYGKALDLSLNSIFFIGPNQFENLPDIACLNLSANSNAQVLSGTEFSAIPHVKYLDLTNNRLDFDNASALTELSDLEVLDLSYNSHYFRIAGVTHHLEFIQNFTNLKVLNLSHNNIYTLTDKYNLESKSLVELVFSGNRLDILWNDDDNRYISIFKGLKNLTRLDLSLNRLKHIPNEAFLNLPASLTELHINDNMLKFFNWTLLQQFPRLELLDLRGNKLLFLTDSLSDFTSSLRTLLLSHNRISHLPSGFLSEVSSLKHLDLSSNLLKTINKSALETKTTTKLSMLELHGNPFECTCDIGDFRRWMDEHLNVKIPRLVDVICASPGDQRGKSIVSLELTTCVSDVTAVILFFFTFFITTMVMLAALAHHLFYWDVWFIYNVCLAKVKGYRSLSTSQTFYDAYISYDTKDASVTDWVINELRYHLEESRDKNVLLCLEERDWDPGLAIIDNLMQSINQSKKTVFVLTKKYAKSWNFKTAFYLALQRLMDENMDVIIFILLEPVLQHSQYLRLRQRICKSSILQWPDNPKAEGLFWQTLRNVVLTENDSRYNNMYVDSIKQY
In words: HEK Reporter Assay, human TLR8. The settings on record: HEK293 NFKB reporter cells expressing human TLR8; read-out: HEK293 hTLR8 EC50. Type of assay: cell-based. As to the method:
(§1) Exemplary 8-sulfonyl-2-aminobenzazepine compounds (8SO2Bz) of the invention were synthesized, purified, and characterized by mass spectrometry and shown to have the expected mass. Additional experimental procedures are found in the Examples. Activity against HEK293 NFKB reporter cells expressing human TLR7 or human TLR8 was measured according to Example 202.
(§2) HEK293 reporter cells expressing human TLR7 or human TLR8 were purchased from Invivogen and vendor protocols were followed for cellular propagation and experimentation. Briefly, cells were grown to 80-85% confluence at 5% CO2 in DMEM supplemented with 10% FBS, Zeocin, and Blasticidin. Cells were then seeded in 96-well flat plates at 4×10^4 cells/well with substrate containing HEK detection medium and immunostimulatory molecules. Activity was measured using a plate reader at 620-655 nm wavelength.

The target in the next assay is T2, human TLR7 (Homo sapiens, UniProt Q9NYK1).
T2 construct: host or cells: HEK293 NF-kB reporter cells
T2 sequence (Q9NYK1 27-1049): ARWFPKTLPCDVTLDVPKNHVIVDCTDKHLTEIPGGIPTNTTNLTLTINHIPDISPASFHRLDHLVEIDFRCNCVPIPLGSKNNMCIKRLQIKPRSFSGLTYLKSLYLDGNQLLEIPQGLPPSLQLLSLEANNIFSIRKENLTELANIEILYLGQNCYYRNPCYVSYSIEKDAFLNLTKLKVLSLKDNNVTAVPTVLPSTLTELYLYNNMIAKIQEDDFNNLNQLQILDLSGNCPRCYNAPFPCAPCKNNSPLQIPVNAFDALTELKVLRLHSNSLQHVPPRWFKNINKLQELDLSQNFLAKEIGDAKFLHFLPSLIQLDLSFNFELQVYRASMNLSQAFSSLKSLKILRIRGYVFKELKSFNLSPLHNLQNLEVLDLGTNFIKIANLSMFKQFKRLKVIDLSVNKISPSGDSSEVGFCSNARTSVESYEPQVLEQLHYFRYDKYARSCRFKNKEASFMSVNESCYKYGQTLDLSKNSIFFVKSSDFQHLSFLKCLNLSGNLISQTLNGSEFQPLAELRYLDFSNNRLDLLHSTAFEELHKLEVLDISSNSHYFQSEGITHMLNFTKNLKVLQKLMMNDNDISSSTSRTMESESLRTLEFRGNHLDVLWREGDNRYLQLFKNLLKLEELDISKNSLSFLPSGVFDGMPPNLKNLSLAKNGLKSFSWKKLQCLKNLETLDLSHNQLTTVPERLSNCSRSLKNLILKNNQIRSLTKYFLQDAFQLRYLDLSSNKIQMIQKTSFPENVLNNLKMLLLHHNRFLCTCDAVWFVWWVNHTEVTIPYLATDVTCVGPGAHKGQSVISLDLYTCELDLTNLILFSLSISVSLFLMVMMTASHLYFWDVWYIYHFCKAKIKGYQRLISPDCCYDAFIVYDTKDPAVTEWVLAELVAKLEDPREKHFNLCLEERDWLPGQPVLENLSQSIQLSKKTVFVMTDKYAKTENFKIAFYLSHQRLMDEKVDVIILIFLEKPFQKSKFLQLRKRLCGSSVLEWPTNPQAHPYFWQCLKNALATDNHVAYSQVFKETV
The experiment in a line: HEK Reporter Assay, human TLR7. Type of assay: cell-based. The settings on record: HEK293 NFKB reporter cells expressing human TLR7; read-out: HEK293 hTLR7 EC50. As for the experimental part: as §1, §2

For the molecule `CCCN(OCC)C(=O)C1=Cc2ccc(S(=O)(=O)c3ccc(C(=O)OC)cc3)cc2N=C(N)C1`, the EC50 on human TLR8 was determined as 1060 nM.
For `CCCN(OCCNC(=O)OC(C)(C)C)C(=O)C1=Cc2ccc(S(=O)(=O)N(C)C)cc2N=C(N)C1` [Immunoconjugate 8SO2Bz-2], the EC50 at human TLR8 was below 2.3 nM; on human TLR7, 395 nM.
As to `CCCN(OCC)C(=O)C1=Cc2ccc(S(=O)(=O)NC)cc2N=C(N)C1` [Immunoconjugate 8SO2Bz-3], the EC50 at human TLR8 was 202 nM.

The values above are taken from patent publication US20250127914A1, “ANTIBODY-CONJUGATED 8-SULFONYL-BENZAZEPINE COMPOUNDS AND THEIR USES” (BOLT BIOTHERAPEUTICS, INC., priority 2022, published 2025).
